Reference: US20240174690A1, “ANNULATED 2-AMINO-3-CYANO THIOPHENES AND DERIVATIVES FOR THE TREATMENT OF CANCER” (BOEHRINGER INGELHEIM INTERNATIONAL GMBH, priority 2021, published 2024)

Columns and labels:
KRAS (G12V)::SOS1 = KRAS (G12V)::SOS1 (Homo sapiens (Human), UniProt P01116, C118S/G12V); assay: KRAS::SOS1 AlphaScreen binding assay, KRAS G12V
Outline: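 AlphaScreen measurement of compound disruption of biotinylated, GDP-loaded KRAS 1-169 (10 nM; G12C 7.5 nM) binding to GST-SOS1 564-1049 (5 nM with G12D/G12C, 10 nM otherwise), with 10 μM GDP in PBS/0.1% BSA/0.05% Tween 20. Timing was 30 min compound preincubation, then 60 min with beads at room temperature; top concentration 100 μM, 4-parameter IC50.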

KRAS (G13D)::SOS1 = KRAS (G13D)::SOS1 (Homo sapiens (Human), UniProt P01116, C118S/G13D); assay: KRAS::SOS1 AlphaScreen binding assay, KRAS G13D
Source text: This assay can be used to examine the potency with which compounds according to the invention binding to (mutated) KRAS inhibit the protein-protein interaction between SOS1 and (mutated) KRAS e.g., KRAS WT, KRAS G12C, KRAS G12D, KRAS G12V, KRAS G13D. […] Low IC50 values in this assay setting are indicative of strong inhibition of protein-protein interaction between SOS1 and KRAS:
These assays measure the inhibitory effect of compounds on KRAS mutant protein-protein interactions using the Alpha Screen technology by Perkin Elmer.
The following (mutant) enzyme forms of KRAS and interacting proteins are used in these assays at the given concentrations: • KRAS (G12D) 1-169, N-terminal 6His-tag, C-terminal avi-tag (Xtal BioStructures, Inc.); final assay concentration 10 nM and SOS1 564-1049, N-terminal 229 GST-tag, TEV cleavage site (Viva Biotech Ltd); final assay concentration 5 nM; • KRAS (G12C) 1-169, N-terminal 6His-tag for purification, cleaved off, C-terminal avi-tag, biotinylated, mutations: C51S, C80L, C118S (in house); final assay concentration 7.5 nM and SOS1 564-1049, N-terminal 229 GST-tag, TEV cleavage site (Viva Biotech Ltd); final assay concentration 5 nM; • KRAS (G12V) 1-169, N-terminal 6His-tag for purification, cleaved off, C-terminal avi-tag, biotinylated, TEV cleavage site, mutation: C118S, GDP loaded (in house); final assay concentration 10 nM and SOS1 564-1049, N-terminal 229 GST-tag, TEV cleavage site (Viva Biotech Ltd); final assay concentration 10 nM; • KRAS (G13D) 1-169, N-terminal 6His-tag for purification, cleaved off, C-terminal avi-tag, biotinylated, TEV cleavage site, mutation: C118S, GDP loaded (in house); final assay concentration 10 nM and SOS1 564-1049, N-terminal 229 GST-tag, TEV cleavage site (Viva Biotech Ltd); final assay concentration 10 nM; • KRAS (WT) 1-169, N-terminal 6His-tag for purification, cleaved off, C-terminal avi-tag, biotinylated, TEV cleavage site, mutation: C118S, GDP loaded (in house); final assay concentration 10 nM and SOS1 564-1049, N-terminal 229 GST-tag, TEV cleavage site (Viva Biotech Ltd); final assay concentration 10 nM.
Test compounds dissolved in DMSO are dispensed onto assay plates (Proxiplate 384 PLUS, white, PerkinElmer; 6008289) using an Access Labcyte Workstation with the Labcyte Echo 55×. For the chosen highest assay concentration of 100 μM, 150 nL of compound solution are transferred from a 10 mM DMSO compound stock solution. A series of eleven fivefold dilutions per compound are transferred to the assay plate, compound dilutions are tested in duplicates. DMSO are added as backfill to a total volume of 150 nL.
The assays run on a fully automated robotic system in a darkened room below 100 Lux. To 150 nl of compound dilution 10 μl of a mix including KRAS mutant protein, SOS1 (final assay concentrations see above) and GDP nucleotide (Sigma G7127; final assay concentration 10 μM) in assay buffer (1×PBS, 0.1% BSA, 0.05% Tween 20) are added into columns 1-24.
After 30 minutes incubation time 5 μl of Alpha Screen bead mix in assay buffer are added into columns 1-23. Bead mix consists of AlphaLISA Glutathione Acceptor Beads (PerkinElmer, Cat No AL109) and AlphaScreen Streptavidin Donor Beads (PerkinElmer Cat No 6760002) in assay buffer at a final assay concentration of 10 μg/ml each.
Plates are kept at room temperature in a darkened incubator. After an additional 60 minutes incubation time the signal is measured in a PerkinElmer Envision HTS Multilabel Reader using the AlphaScreen specs from PerkinElmer.
Each plate contains up to 16 wells of a negative control depending on the dilution procedure (platewise or serial) (DMSO instead of test compound; with KRAS mutant::SOS1 GDP mix and bead mix; column 23) and 16 wells of a positive control (DMSO instead of test compound; with KRAS mutant::SOS1 GDP mix w/o bead mix; column 24).
As internal control known inhibitors of KRAS mutant::SOS1 interaction can be measured on each compound plate. […]

KRAS (WT)::SOS1 = KRAS (WT)::SOS1 (Homo sapiens (Human), UniProt P01116, C118S); assay: KRAS::SOS1 AlphaScreen binding assay, KRAS WT
Outline: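 Compounds (up to 100 μM, eleven fivefold dilutions in duplicate) were incubated 30 min with KRAS 1-169 (10 nM, or 7.5 nM for G12C), GST-SOS1 564-1049 (5 nM for G12D/G12C, 10 nM for others) and 10 μM GDP in PBS buffer with BSA and Tween. Donor/acceptor beads were then added for 60 min at room temperature, and IC50 came from a 4-parameter fit of the AlphaScreen signal.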

GP2D cells = assay: GP2D proliferation assay (120 h) (colorectal cancer, G12D); format: cell-based
Outline: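 500 cells/well in DMEM + GlutaMAX + 10% FCS, exposed to a logarithmic compound dose series (DMSO-normalized) for 120 h. Viability read by CellTiter-Glo luminescence as percent of DMSO control, with an untreated T0 read at dosing; IC50 from four-parameter non-linear regression.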

A375 cells = assay: A375 CTG proliferation assay (120 h) (melanoma, wt, B-Raf mutant, negative control); format: cell-based; details: Homo sapiens, A-375, CTG 120 h
Method: A375 CTG Proliferation Assay (120 h) (Melanoma, Wt, B-Raf Mutant, Negative Control)
A375 cells (ATCC CRL-1619) are dispensed into 384-well plates, flat and clear bottom (Greiner, PNr. 781091) at a density of 300 cells per well in 60 μL DMEM (Sigma 06429)+10% Fetal Calf Serum (HyClone, PNr.: SH30084.03) and incubated at 37° C. in a CO2 incubator overnight. The next day, compounds (10 mM stock in DMSO) are added at logarithmic dose series using the HP Digital Dispenser D300 (Tecan), including DMSO controls. Plates are incubated for 120 h, and cell viability is measured using CellTiter-Glo luminescent cell viability reagent (Promega product code G7570). Viability (stated as percent of control) is defined as relative luminescence units RLU of each well divided by the RLU of cells in DMSO controls. IC50 values are determined from viability measurements by non-linear regression using a four-parameter model.

Sequence of KRAS (G12V)::SOS1 (P01116 other isoform, or with tags, fused parts or gaps G12V/C118S): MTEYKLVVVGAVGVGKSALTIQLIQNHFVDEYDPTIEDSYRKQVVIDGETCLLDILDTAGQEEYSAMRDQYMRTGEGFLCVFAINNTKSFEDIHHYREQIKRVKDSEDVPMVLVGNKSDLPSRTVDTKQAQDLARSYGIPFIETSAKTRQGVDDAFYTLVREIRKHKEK
Sequence of KRAS (G13D)::SOS1 (P01116 other isoform, or with tags, fused parts or gaps G13D/C118S): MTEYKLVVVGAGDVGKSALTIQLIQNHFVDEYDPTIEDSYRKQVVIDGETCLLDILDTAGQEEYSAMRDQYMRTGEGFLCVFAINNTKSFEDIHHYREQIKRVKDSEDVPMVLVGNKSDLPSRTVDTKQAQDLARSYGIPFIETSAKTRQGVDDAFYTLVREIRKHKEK
Sequence of KRAS (WT)::SOS1 (P01116 other isoform, or with tags, fused parts or gaps C118S): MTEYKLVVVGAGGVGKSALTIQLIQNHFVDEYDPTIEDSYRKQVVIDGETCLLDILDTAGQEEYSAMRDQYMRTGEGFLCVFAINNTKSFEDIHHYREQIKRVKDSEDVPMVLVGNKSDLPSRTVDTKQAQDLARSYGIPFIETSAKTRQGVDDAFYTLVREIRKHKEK

SMILES | IC50 (KRAS (G12V)::SOS1) | IC50 (KRAS (G13D)::SOS1) | IC50 (KRAS (WT)::SOS1) | IC50 (GP2D cells) | IC50 (A375 cells)
Cc1ccc(-c2cc(O[C@@H](C)[C@@H]3CCCN3C)nc(-c3onc4c3CCC[C@@]43CCCc4sc(N)c(C#N)c43)n2)cn1 [I-28] | 3 nM | – | 18 nM | – | –
C[C@H](Oc1cc(N2CCN(C)C3(CC3)C2)nc(-c2onc3c2CCC[C@@]32CCCc3sc(N)c(C#N)c32)n1)[C@@H]1C[C@@H](F)CN1C [I-39] | – | 146 nM | 11 nM | 17 nM | –
C[C@H](Oc1cc(N2C[C@H](C)N(C)[C@@H](C)C2)nc(-c2onc3c2CCC[C@@]32CCCc3sc(N)c(C#N)c32)n1)[C@@H]1CCCN1C [I-43] | 8 nM | – | – | 143 nM | –
C[C@H](Oc1cc(N2CCNC3(CC3)C2)nc(-c2onc3c2CCC[C@@]32CCCc3sc(N)c(C#N)c32)n1)[C@@H]1C[C@@H](F)CN1C [I-45] | 8 nM | – | 6 nM | 2 nM | –
C[C@H](Oc1cc(N2CC[C@H](N(C)C)C2)nc(-c2noc3c2CCC[C@@]32CCCc3sc(N)c(C#N)c32)n1)[C@@H]1C[C@@H](F)CN1C [II-15] | 39 nM | 71 nM | 11 nM | 9 nM | –
C[C@@H]1CN(c2cc(O[C@@H](C)[C@@H]3C[C@@H](F)CN3C)nc(-c3noc4c3CCC[C@@]43CCCc4sc(N)c(C#N)c43)n2)CC2(CC2)N1 [II-17] | – | – | 5 nM | 6 nM | –
C[C@H](Oc1cc(N2C[C@H](C)NC3(CC3)C2)nc(-c2noc3c2CCC[C@@]32CCCc3sc(N)c(C#N)c32)n1)[C@@H]1C[C@@H](F)CN1C [II-18] | – | – | 6 nM | 2 nM | –
C[C@H](Oc1cc(-n2ccc(C(=O)N3CCCC3)n2)nc(-c2noc3c2CCC[C@@]32CCCc3sc(N)c(C#N)c32)n1)[C@@H]1CCCN1C [II-19] | – | 9 nM | – | 136 nM | 1120 nM
C[C@H](Oc1cc(-n2ccc(C(=O)NC3COC3)n2)nc(-c2noc3c2CCC[C@@]32CCCc3sc(N)c(C#N)c32)n1)[C@@H]1CCCN1C [II-25] | 7 nM | 11 nM | 16 nM | – | –
C[C@H](Oc1cc(-c2ccn(C)n2)nc(-c2noc3c2CCC[C@@]32CCCc3sc(N)c(C#N)c32)n1)[C@@H]1C[C@@H](F)CN1C [II-27] | – | – | – | 408 nM | > 3000 nM
C[C@H](Oc1cc(-c2cnn(C)n2)nc(-c2noc3c2CCC[C@@]32CCCc3sc(N)c(C#N)c32)n1)[C@@H]1C[C@@H](F)CN1C [II-28] | 12 nM | – | – | – | –
C[C@H](Oc1cc(N2CCNC3(COC3)C2)nc(-c2noc3c2CCC[C@@]32CCCc3sc(N)c(C#N)c32)n1)[C@@H]1CCCN1C [II-31] | – | 8 nM | – | 1 nM | –
C[C@H](Oc1cc(N2CC3CCC(C2)N3)nc(-c2noc3c2CCC[C@@]32CCCc3sc(N)c(C#N)c32)n1)[C@@H]1CCCN1C [II-34] | 17 nM | 38 nM | 8 nM | 49 nM | –
CN[C@H]1CCN(c2cc(O[C@@H](C)[C@@H]3CCCN3C)nc(-c3noc4c3CCC[C@@]43CCCc4sc(N)c(C#N)c43)n2)C1 [II-35] | – | – | 13 nM | 31 nM | –
C[C@H](Oc1cc(N2CCC(N(C)C)CC2)nc(-c2noc3c2CCC[C@@]32CCCc3sc(N)c(C#N)c32)n1)[C@@H]1CCCN1C [II-48] | – | – | 34 nM | 65 nM | –

Second part, the molecule after the results:

IC50 (KRAS (G12V)::SOS1) | IC50 (KRAS (G13D)::SOS1) | IC50 (KRAS (WT)::SOS1) | IC50 (GP2D cells) | IC50 (A375 cells) | SMILES
8 nM | 20 nM | 3 nM | 1 nM | – | C[C@H](Oc1cc(N2CCNC3(COC3)C2)nc(-c2onc3c2CCC[C@@]32CCCc3sc(N)c(C#N)c32)n1)[C@@H]1CCCN1C [I-4]
– | – | 3 nM | 27 nM | > 3000 nM | C[C@H](Oc1cc([C@@H]2CCOC2)nc(-c2onc3c2CCC[C@@]32CCCc3sc(N)c(C#N)c32)n1)[C@@H]1CCCN1C [I-22]
3 nM | 8 nM | 3 nM | 9 nM | – | C[C@H](Oc1cc(N2CCN(C)C3(COC3)C2)nc(-c2noc3c2CCC[C@@]32CCCc3sc(N)c(C#N)c32)n1)[C@@H]1CCCN1C [II-13]
2 nM | – | 4 nM | 57 nM | > 3000 nM | CNC(=O)c1ccn(-c2cc(O[C@@H](C)[C@@H]3CCCN3C)nc(-c3noc4c3CCC[C@@]43CCCc4sc(N)c(C#N)c43)n2)n1 [II-20]
1 nM | 12 nM | 3 nM | 57 nM | > 3000 nM | C[C@H](Oc1cc(-n2ccc(C(N)=O)n2)nc(-c2noc3c2CCC[C@@]32CCCc3sc(N)c(C#N)c32)n1)[C@@H]1CCCN1C [II-21]
2 nM | 8 nM | 3 nM | – | – | C[C@H](Oc1cc(-n2ccc(C(=O)NC3(C)COC3)n2)nc(-c2noc3c2CCC[C@@]32CCCc3sc(N)c(C#N)c32)n1)[C@@H]1CCCN1C [II-26]
2 nM | – | 5 nM | – | – | C[C@H](Oc1cc(-c2ccn([C@H]3CCCOC3)n2)nc(-c2noc3c2CCC[C@@]32CCCc3sc(N)c(C#N)c32)n1)[C@@H]1CCCN1C [II-42]
